{"source": "ChEMBL document CHEMBL1201862", "about": "“PubChem BioAssay data set” (2004)", "key": {"[1]": {"target": "Tyrosine-protein kinase SYK (Homo sapiens, UniProt P43405)", "assay_type": "functional"}, "[2]": {"target": "T1, DNA repair protein RAD52 homolog (Homo sapiens, UniProt P43351)", "T1 sequence (P43351 whole entry)": "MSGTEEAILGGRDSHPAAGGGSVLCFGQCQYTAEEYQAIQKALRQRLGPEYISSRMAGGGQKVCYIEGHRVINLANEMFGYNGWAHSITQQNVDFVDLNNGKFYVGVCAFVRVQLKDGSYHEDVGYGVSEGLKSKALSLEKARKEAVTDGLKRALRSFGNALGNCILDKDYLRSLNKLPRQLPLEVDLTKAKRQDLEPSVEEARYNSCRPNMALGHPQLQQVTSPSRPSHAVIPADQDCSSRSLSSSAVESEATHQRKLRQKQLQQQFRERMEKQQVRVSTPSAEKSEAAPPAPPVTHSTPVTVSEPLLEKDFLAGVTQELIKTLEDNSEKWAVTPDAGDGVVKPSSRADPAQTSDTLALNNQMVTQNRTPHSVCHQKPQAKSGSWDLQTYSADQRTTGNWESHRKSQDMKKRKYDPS", "assay_type": "functional, biochemical"}, "[3]": {"assay": "HeLa cell cytotoxicity, dose response, cytotoxicity control, CellTiter-Glo luminescence, dry powder, set 2 (AID 720593)", "assay_type": "functional, cell-based"}, "cells [4]": {"assay": "cells", "assay_type": "functional, cell-based"}, "[5]": {"assay": "cytotoxicity toward NIH3T3 fibroblasts, dose response, counter-screen, cell-based, ATP luminescence, mouse fibroblasts (AID 2010);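 also: cells exposed to compound for about 90 hours before reading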", "assay_type": "functional"}, "cells [6]": {"assay": "cells", "assay_type": "functional, cell-based", "remark": "listed apart in the source"}, "[7]": {"assay": "Vero E6 cell cytotoxicity, dose response, cytotoxicity control for non-replicating M. tuberculosis project, secondary assay (AID 492998)", "assay_type": "functional, VeroE6", "details": "Vero C1008"}, "[8]": {"assay": "HepG2 cell cytotoxicity, dose response, cytotoxicity control for Shn3 inhibitor project, CellTiter-Glo, cherry-picked (AID 624134)", "assay_type": "functional, cell-based"}, "[9]": {"assay": "miR-122 activators in hepatoma reporter cells, dose response, cell-based, Huh7 psiCHECK-miR122, Renilla luciferase, cherry-picked (AID 651956);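 also: huh7 hepatoma cells stably carrying a psiCHECK-2 miR-122 sensor plasmid; renilla luciferase signal reporting endogenous miR-122 activity after 48 h compound exposure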", "assay_type": "functional"}, "BJ": {"system": "BJ", "assay": "cytotoxicity toward BJ-TERT-LT-ST fibroblasts, dose response, cell-based, RAS-independent, luminescence (AID 1935);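 also: BJ fibroblasts immortalized with TERT plus LT and ST oncogenes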", "assay_type": "functional", "details": "Homo sapiens"}, "[10]": {"assay": "HEK293T cytotoxicity, dose response, cytotoxicity control for miR-122 modulator project, cell-based, inhibitor set, cherry-pick, set 2 (AID 720697)", "assay_type": "functional"}, "[11]": {"target": "Serine/threonine-protein phosphatase PP1-alpha catalytic subunit (Homo sapiens, UniProt P62136)", "sequence (P62136 whole entry)": "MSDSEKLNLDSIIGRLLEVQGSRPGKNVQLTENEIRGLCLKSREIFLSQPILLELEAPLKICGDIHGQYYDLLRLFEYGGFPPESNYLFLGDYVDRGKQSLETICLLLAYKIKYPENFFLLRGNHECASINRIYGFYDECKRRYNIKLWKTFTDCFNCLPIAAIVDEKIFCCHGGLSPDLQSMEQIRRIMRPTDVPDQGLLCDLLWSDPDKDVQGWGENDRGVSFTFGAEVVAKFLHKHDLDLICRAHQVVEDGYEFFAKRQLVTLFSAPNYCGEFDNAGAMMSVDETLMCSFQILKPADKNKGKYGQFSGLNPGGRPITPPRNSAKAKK", "assay": "PP1 phosphatase inhibitors, dose response, biochemical, fluorescence (AID 2394)"}, "[12]": {"target": "T2, Sentrin-specific protease 7 (Homo sapiens, UniProt Q9BQF6)", "T2 sequence (Q9BQF6 whole entry)": "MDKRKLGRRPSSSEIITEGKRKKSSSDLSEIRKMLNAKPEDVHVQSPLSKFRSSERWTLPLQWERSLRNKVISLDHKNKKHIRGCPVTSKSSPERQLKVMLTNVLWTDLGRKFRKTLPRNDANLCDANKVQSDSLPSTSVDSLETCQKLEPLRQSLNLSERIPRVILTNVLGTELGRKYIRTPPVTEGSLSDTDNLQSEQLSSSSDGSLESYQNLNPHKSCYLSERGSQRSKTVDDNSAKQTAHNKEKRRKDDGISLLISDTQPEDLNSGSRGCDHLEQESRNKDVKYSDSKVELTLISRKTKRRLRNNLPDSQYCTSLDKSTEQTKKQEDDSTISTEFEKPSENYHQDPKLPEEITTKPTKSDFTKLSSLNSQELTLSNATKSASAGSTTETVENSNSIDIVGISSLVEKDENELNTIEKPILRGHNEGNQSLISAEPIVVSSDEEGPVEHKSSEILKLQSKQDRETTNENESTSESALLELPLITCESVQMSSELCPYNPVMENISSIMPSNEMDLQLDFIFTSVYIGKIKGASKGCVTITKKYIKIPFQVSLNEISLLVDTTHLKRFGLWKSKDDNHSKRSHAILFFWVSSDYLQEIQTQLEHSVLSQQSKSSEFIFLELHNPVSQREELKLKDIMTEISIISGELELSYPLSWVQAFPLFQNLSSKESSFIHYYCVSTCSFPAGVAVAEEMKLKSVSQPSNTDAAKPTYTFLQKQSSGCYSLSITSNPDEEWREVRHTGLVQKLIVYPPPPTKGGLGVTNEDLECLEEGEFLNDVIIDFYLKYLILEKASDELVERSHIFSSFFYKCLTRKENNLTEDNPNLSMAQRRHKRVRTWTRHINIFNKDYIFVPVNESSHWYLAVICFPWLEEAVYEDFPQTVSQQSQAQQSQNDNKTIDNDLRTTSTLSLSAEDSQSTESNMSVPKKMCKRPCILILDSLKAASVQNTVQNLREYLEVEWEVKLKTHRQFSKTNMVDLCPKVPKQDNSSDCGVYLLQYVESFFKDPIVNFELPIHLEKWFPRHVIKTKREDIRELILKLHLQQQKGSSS", "assay_type": "functional"}, "[13]": {"target": "Platelet-derived growth factor receptor beta (Homo sapiens, UniProt P09619)", "sequence (P09619 whole entry)": "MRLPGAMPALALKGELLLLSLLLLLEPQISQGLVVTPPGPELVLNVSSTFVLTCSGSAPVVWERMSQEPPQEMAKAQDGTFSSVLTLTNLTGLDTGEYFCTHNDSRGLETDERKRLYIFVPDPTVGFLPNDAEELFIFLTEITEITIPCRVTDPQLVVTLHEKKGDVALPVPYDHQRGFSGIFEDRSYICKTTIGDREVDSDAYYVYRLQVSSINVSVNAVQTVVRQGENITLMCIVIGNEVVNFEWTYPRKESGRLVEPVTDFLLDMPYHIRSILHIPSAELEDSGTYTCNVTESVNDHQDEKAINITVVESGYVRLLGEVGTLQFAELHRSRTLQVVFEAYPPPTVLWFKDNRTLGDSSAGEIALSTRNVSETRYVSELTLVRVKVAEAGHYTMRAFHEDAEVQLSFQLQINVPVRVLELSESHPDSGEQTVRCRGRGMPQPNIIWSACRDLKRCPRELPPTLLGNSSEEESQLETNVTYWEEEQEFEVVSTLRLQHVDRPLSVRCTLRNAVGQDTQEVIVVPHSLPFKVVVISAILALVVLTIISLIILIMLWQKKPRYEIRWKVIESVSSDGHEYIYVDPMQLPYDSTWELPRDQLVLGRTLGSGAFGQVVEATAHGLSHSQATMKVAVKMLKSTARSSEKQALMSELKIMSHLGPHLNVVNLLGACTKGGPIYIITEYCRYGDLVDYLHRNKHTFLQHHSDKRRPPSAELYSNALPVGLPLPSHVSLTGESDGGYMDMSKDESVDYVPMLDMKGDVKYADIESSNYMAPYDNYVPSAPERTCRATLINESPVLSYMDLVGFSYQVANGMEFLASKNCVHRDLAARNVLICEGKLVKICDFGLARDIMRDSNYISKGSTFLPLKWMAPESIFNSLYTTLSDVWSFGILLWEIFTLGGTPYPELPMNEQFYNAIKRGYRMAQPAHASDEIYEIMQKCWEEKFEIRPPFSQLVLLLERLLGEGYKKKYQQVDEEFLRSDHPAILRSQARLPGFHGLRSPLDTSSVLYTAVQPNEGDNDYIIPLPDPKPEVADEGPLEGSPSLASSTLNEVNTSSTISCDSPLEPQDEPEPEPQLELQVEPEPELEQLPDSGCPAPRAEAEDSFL", "assay_type": "functional"}, "[14]": {"target": "Cyclin-dependent kinase 9 (Homo sapiens, UniProt P50750)", "sequence (P50750 whole entry)": "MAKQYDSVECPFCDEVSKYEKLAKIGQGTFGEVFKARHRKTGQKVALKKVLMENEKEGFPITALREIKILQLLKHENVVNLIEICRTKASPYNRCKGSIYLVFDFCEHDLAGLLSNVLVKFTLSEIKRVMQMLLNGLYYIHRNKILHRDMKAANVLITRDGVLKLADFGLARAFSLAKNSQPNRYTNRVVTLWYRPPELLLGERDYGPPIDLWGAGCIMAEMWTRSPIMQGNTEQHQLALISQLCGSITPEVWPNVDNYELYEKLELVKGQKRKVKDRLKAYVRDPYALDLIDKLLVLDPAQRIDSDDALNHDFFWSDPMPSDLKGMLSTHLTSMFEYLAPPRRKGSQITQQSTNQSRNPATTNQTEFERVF", "assay_type": "functional"}, "[15]": {"target": "Hepatocyte growth factor receptor (Homo sapiens, UniProt P08581)", "sequence (P08581 whole entry)": "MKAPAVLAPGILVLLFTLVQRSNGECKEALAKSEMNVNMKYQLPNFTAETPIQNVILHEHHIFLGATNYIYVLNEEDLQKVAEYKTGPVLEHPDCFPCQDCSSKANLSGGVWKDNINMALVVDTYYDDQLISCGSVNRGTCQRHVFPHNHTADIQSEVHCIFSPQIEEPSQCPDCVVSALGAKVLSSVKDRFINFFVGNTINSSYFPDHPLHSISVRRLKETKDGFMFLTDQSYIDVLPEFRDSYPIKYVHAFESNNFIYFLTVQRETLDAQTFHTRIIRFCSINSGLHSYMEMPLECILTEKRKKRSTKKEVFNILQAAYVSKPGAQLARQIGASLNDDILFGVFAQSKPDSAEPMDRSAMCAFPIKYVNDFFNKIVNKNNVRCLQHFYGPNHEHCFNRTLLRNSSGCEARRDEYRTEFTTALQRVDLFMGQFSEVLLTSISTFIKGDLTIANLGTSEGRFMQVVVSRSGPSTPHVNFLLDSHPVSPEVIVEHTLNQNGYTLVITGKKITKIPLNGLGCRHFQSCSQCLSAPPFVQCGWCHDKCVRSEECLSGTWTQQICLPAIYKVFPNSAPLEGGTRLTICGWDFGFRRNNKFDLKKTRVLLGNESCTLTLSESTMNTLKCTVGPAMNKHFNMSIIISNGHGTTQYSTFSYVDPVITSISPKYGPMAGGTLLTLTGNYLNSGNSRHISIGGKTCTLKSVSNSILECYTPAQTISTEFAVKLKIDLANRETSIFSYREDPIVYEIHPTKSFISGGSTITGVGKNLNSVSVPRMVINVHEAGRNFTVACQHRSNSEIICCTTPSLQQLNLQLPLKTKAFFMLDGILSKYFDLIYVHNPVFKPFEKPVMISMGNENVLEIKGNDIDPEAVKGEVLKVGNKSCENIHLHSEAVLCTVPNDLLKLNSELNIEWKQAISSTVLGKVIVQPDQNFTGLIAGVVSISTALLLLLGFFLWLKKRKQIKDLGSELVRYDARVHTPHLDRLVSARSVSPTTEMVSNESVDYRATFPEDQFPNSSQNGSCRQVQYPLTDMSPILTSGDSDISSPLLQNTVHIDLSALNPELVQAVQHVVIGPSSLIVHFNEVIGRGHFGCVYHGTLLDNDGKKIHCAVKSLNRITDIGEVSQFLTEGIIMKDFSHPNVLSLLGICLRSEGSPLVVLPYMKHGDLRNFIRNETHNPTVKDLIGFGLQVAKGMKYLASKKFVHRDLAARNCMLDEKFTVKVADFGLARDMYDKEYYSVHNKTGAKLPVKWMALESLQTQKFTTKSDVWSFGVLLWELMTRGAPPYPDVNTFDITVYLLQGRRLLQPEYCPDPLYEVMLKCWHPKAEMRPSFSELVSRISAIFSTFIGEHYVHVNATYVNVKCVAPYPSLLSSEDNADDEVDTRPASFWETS", "assay_type": "functional"}, "[16]": {"target": "Casein kinase I isoform alpha (Homo sapiens, UniProt P48729)", "sequence (P48729 whole entry, canonical isoform)": "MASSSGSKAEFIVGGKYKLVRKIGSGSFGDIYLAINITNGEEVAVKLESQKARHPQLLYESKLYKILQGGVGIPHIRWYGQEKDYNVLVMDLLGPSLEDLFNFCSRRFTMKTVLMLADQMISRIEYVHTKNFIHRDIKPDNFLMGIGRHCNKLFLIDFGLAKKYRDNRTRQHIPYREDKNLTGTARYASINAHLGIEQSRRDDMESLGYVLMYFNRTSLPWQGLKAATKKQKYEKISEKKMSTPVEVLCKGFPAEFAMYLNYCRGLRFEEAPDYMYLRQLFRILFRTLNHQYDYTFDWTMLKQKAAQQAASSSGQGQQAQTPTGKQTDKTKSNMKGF", "assay_type": "functional"}}, "note": "Activity calls are given as the source filed them.", "data": [{"molecule": "NC1CCC(Nc2nc(Cl)cc(-c3c[nH]c4ncccc34)n2)CC1", "note": "(configuration not stated)", "values": [{"measurement": "Ki", "setting": "[1]", "result": "> 1.58 µM (inactive)"}]}, {"molecule": "CCCCCCCCCCCCCCCC[N+](C)(C)C", "values": [{"measurement": "AC50", "setting": "[2]", "result": "8.73 µM (active)"}]}, {"molecule": "CC(C)CC(=O)NC(c1cccs1)c1ccc2cccnc2c1O", "note": "(configuration not stated)", "values": [{"measurement": "AC50", "setting": "[3]", "result": "20.3 µM (active)"}, {"measurement": "EC50", "setting": "cells [4]", "result": "6.65 µM (active)"}, {"measurement": "EC50", "setting": "[5]", "result": "1.48 µM (active)"}, {"measurement": "EC50", "setting": "cells [6]", "result": "> 350 µM (not active)"}]}, {"molecule": "Cc1ccccc1-c1cc2c(nn1)-c1ccccc1C2=O", "values": [{"measurement": "CC50", "setting": "[7]", "result": "9.21 µM (active)"}]}, {"molecule": "OC(CNCCC1C=Nc2ccccc21)Cn1c2ccc(Cl)cc2c2cc(Cl)ccc21", "note": "(configuration not stated)", "values": [{"measurement": "AC50", "setting": "[8]", "result": "9.39 µM (active)"}, {"measurement": "AC50", "setting": "[9]", "result": "12.8 µM (active)"}, {"measurement": "EC50", "setting": "BJ", "result": "5.42 µM (inconclusive)"}, {"measurement": "AC50", "setting": "[10]", "result": "7.91 µM (active)"}]}, {"molecule": "COc1ccc(C(=O)c2nccc3cc(OC)c(OC)cc23)cc1OC", "values": [{"measurement": "IC50", "setting": "[11]", "result": "> 67 µM (not active)"}, {"measurement": "IC50", "setting": "[12]", "result": "1.67 µM (active)"}]}, {"molecule": "O=C(O)C1CN(Cc2ccc(OCc3ccccc3)cc2Cl)C1", "values": [{"measurement": "Ki", "setting": "[13]", "result": "> 2 µM (inactive)"}, {"measurement": "Ki", "setting": "[14]", "result": "> 1.58 µM (inactive)"}, {"measurement": "Ki", "setting": "[15]", "result": "> 2.51 µM (inactive)"}, {"measurement": "Ki", "setting": "[16]", "result": "> 3.98 µM (inactive)"}]}]}
